{"source": "patent US10059636B2", "about": "“Pesticide product including polyanionic polymers” (Verdesian Life Sciences, LLC, priority 2013, dated 2018)", "system": "cotton", "assay": "Phosphorous fixation field test with DAP on cotton", "type": "in vivo", "conditions": "for % by weight Phosphorous in Tissue: cotton tissue prior to first bloom", "text": "In a field test, two rates of phosphorous as diammonium phosphate (DAP) were broadcast-applied as a pre-plant fertilizer to a cotton field, namely 65 lbs of DAP per acre and 130 lbs of DAP per acre. The tests were two replications each of an unfertilized control, a DAP-only control, and DAP mixed with 0.25% w/w of a Class I polymer formulation. The formulation included 40% w/w of a partial zinc/sodium salt of T5 polymer, 5% w/w zinc, and the balance water, pH about 3,\nTissue tests were taken prior to first bloom from each plot, and the percent of phosphorous in the plant tissue was measured. After harvesting, lint yields were measured.", "data": [{"compound": "N.N.O=P(O)(O)O", "note": "[DAP, diammonium phosphate]", "values": [{"measurement": "Lint Yield", "setting": "65 lbs of DAP per acre", "value": 712, "unit": "lbs/acre"}, {"measurement": "% by weight Phosphorous in Tissue", "setting": "65 lbs of DAP per acre", "value": 0.41, "unit": "% by weight"}, {"measurement": "Lint Yield", "setting": "130 lbs of DAP per acre", "value": 781, "unit": "lbs/acre"}, {"measurement": "% by weight Phosphorous in Tissue", "setting": "130 lbs of DAP per acre", "value": 0.41, "unit": "% by weight"}]}]}
